The values that follow come from US20170015666A1, “ENHANCER OF ZESTE HOMOLOG 2 INHIBITORS” (GLAXOSMITHKLINE INTELLECTUAL PROPERTY (NO.2) LIMITED, priority 2014, published 2017).

One may read the IC50 as the concentration at which inhibition is half-maximal. Higher therefore signals weaker potency in that assay.

The assay has as its target T1, EZH2 within the PRC2 complex (Homo sapiens, UniProt Q15910).
T1 construct: FLAG; made in house; host or cells: Sf9 cells
In words: EZH2 methyltransferase scintillation proximity assay (SPA) with PRC2 complex. The assay is classed as biochemical. The settings on record: 3H-SAM, HeLa mononucleosome substrate, 30 min preincubation, 1 hour reaction. For orientation: SPA uses beads or plates that emit light when radiolabelled molecules are held near them.

T1 sequence (Q15910 whole entry): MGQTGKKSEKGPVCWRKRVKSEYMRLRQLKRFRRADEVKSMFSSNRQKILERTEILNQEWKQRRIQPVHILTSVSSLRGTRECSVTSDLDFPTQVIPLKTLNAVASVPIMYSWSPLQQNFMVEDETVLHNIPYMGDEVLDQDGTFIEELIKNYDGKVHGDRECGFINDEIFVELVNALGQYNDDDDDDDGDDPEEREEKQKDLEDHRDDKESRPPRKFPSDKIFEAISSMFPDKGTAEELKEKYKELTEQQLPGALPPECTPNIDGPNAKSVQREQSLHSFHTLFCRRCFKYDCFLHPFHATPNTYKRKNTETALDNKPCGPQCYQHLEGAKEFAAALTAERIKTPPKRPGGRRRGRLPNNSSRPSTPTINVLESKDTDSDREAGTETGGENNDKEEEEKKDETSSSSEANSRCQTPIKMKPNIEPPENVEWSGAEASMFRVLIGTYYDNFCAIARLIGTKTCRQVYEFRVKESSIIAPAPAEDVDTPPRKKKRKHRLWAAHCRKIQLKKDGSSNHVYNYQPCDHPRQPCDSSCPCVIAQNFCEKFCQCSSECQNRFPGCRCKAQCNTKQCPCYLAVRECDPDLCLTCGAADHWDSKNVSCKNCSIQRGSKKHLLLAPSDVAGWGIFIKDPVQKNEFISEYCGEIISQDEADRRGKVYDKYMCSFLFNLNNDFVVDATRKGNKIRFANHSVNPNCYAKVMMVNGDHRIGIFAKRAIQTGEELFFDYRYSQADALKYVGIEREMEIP
T1 sequence (O75530 whole entry partner): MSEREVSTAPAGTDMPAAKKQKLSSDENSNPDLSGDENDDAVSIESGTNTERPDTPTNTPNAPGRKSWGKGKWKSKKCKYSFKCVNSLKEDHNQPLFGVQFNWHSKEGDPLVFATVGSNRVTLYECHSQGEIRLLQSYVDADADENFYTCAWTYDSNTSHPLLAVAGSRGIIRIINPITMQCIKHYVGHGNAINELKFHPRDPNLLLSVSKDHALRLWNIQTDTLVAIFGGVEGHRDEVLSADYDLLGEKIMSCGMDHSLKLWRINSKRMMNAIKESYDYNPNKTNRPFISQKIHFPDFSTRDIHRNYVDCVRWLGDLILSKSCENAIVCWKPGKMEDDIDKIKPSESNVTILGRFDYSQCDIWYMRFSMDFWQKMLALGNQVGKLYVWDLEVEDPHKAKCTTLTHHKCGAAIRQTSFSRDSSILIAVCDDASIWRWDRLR
T1 sequence (Q15022 whole entry partner): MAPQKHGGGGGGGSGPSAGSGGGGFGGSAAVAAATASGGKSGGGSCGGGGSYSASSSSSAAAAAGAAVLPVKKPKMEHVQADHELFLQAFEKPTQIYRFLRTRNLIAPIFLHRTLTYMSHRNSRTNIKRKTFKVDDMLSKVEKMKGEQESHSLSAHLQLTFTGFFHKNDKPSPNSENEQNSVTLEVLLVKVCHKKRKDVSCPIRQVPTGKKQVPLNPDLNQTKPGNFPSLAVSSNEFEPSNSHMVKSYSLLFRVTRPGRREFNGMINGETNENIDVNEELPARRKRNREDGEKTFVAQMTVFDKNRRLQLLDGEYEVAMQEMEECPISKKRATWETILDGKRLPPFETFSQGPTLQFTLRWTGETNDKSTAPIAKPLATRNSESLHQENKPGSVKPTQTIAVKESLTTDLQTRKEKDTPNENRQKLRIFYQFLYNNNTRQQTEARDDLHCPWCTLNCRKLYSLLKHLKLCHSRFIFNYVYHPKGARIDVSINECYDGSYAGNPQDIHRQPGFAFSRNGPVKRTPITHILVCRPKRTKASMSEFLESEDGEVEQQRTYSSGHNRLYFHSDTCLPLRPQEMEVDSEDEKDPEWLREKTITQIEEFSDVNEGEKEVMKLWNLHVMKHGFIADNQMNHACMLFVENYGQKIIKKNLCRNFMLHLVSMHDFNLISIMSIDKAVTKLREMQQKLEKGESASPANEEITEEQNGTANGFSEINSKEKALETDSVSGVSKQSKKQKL
T1 sequence (Q09028 whole entry partner): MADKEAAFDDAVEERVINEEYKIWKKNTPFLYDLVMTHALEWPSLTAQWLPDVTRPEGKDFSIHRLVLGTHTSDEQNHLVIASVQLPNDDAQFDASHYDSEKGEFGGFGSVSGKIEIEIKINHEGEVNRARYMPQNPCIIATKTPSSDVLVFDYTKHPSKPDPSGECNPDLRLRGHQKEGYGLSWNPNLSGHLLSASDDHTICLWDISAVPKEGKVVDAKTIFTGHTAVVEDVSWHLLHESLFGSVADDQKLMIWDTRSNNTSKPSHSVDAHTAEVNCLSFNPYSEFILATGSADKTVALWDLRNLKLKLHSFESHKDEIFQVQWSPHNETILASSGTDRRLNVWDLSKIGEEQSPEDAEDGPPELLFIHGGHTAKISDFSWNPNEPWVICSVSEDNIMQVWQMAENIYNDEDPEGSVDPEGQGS
T1 sequence (Q6ZN18 whole entry partner): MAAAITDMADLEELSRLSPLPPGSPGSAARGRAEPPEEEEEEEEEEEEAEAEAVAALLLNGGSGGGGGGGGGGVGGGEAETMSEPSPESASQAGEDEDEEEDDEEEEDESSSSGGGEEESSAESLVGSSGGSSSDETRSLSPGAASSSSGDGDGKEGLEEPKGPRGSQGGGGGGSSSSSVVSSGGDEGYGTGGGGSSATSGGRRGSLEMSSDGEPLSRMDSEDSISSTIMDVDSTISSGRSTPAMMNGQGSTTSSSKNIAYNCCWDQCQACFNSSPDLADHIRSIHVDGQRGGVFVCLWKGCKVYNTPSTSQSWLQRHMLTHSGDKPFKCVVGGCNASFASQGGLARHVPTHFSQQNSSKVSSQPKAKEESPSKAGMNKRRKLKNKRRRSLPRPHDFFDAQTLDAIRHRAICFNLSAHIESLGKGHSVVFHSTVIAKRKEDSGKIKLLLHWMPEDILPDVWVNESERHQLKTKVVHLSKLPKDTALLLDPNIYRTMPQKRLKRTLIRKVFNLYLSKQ

Consider `Cc1cc2c(c(=O)[nH]1)CNC(=O)c1cc(Cl)cc3c1c(cn3C(C)C)C/C=C/CC2` [Example 1, (E)-2-chloro-4-isopropyl-12-methyl-9,10,15,16-tetrahydro-4H-pyrido[4′,3′:11,12][1]azacyclotridecino[5,4,3-cd]indole-14,17(6H,13H)-dione], for which half-maximal inhibition (IC50) was put at 40 nM. Regarding `Cc1cc2c(c(=O)[nH]1)CNC(=O)c1cc(Cl)cc3c1c(cn3C(C)C)C/C=C\CC2` [Example 2, (Z)-2-chloro-4-isopropyl-12-methyl-9,10,15,16-tetrahydro-4H-pyrido[4′,3′:11,12][1]azacyclotridecino[5,4,3-cd]indole-14,17(6H,13H)-dione], the IC50 came out at 316 nM.

With `Cc1cc2c(c(=O)[nH]1)CNC(=O)c1cc(Cl)cc3c1c(cn3C(C)C)CCCCC2` [Example 3, 2-chloro-4-isopropyl-12-methyl-7,8,9,10,15,16-hexahydro-4H-pyrido[4′,3′:11,12][1]azacyclotridecino[5,4,3-cd]indole-14,17(6H,13H)-dione], the IC50 is 500 nM. As for `Cc1cc2c(c(=O)[nH]1)CNC(=O)c1cc(-c3ccc(N4CCNCC4)nc3)cc3c1c(cn3C(C)C)C/C=C/CC2` [Example 4, (E)-4-isopropyl-12-methyl-2-(6-(piperazin-1-yl)pyridin-3-yl)-9,10,15,16-tetrahydro-4H-pyrido[4′,3′:11,12][1]azacyclotridecino[5,4,3-cd]indole-14,17(6H,13H)-dione], the IC50 turned out to be 32 nM.

`Cc1cc2c(c(=O)[nH]1)CNC(=O)c1cc(C#N)cc3c1c(cn3C(C)C)C/C=C/CC2` [Example 5, (E)-4-isopropyl-12-methyl-14,17-dioxo-6,9,10,13,14,15,16,17-octahydro-4H-pyrido[4′,3′:11,12][1]azacyclotridecino[5,4,3-cd]indole-2-carbonitrile] yielded a half-maximal inhibitory concentration (IC50) of 158 nM.

Regarding `Cc1cc2c(c(=O)[nH]1)CNC(=O)c1cc(C#CC(C)(C)O)cc3c1c(cn3C(C)C)C/C=C/CC2` [Example 6, (E)-2-(3-hydroxy-3-methylbut-1-yn-1-yl)-4-isopropyl-12-methyl-9,10,15,16-tetrahydro-4H-pyrido[4′,3′:11,12][1]azacyclotridecino[5,4,3-cd]indole-14,17(6H,13H)-dione], the midpoint of inhibition, the IC50, lay at 200 nM.
